From patent US20110039762A1, “TARGETED ANTIMICROBIAL MOIETIES” (C3 JIAN, INC., priority 2009, published 2011)
“Also recorded” adds a separate entry of the source. Bridge positions count the residues as written; N and C are the ends. Square brackets hold non-standard residues; d marks the D form. Ends that are not written are not given here. Peptide text beside a SMILES is read from it. I, II: the chains in the order shown. Aoc = NCCCCCCCC(=O)O

How the values were obtained:
S. pneumoniae [1] = assay: MIC (broth microdilution); assay type: cell-based, Streptococcus pneumoniae
Method: (§1) Typically, the in vitro antimicrobial activity of antimicrobial agents is tested using standard NCCLS bacterial inhibition assays, or MIC tests (see, National Committee on Clinical Laboratory Standards “Performance Standards for Antimicrobial Susceptibility Testing,” NCCLS Document M100-S5 Vol. 14, No. 16, December 1994; “Methods for dilution antimicrobial susceptibility test for bacteria that grow aerobically-Third Edition,” Approved Standard M7-A3, National Committee for Clinical Standards, Villanova, Pa.).
(§2) Briefly, ˜1×10^5 cfu/mL bacteria were diluted in TH (S. mutans), or Mueller-Hinton (MH) broth (all other organisms) and distributed to 96-well plates. Serially-diluted (2-fold) peptides were then added and the plates incubated at 37° C. for 18-24 h. […] All experiments were conducted 10 times.

S. epidermidis [2] = assay: Kill or inhibit growth/proliferation; morphology, biofilm and growth disruption (Tables 5, 6); assay type: cell-based, Staphylococcus epidermidis; parameters: key: A: Peptide aggregates; B: Less hyphal formation; Clumps; Diffuse clumps and small polyps; F: Diffuse growth; H: Thin; I: Growth inhibition; Microcolony formation; Rippled; Small polyps; Thick; W: Halo formation on top, microlonies on bottom
E. coli [3] = assay: as above; assay type: cell-based, Escherichia coli; parameters: key: A: Peptide aggregates; B: Less hyphal formation; Clumps; Diffuse clumps and small polyps; F: Diffuse growth; H: Thin; I: Growth inhibition; Microcolony formation; Rippled; Small polyps; Thick; W: Halo formation on top, microlonies on bottom
E. coli [4] = assay type: cell-based, Escherichia coli; conditions: E. coli
Method: as §1, §2

S. mutans [5] = assay: Kill or inhibit growth/proliferation; morphology, biofilm and growth disruption (Tables 5, 6); assay type: cell-based, Streptococcus mutans; parameters: key: A: Peptide aggregates; B: Less hyphal formation; Clumps; Diffuse clumps and small polyps; F: Diffuse growth; H: Thin; I: Growth inhibition; Microcolony formation; Rippled; Small polyps; Thick; W: Halo formation on top, microlonies on bottom
microorganisms = assay: Peptides having multiple activities (targeting/binding, antimicrobial, growth or phenotype altering)
Text: In certain embodiments, peptides described herein can have multiple activities. Thus for example, a peptide can have both binding/targeting activity and antimicrobial activity. Such peptides can be used, e.g., in a chimeric construct, for any or all of these properties. Thus, for example, a peptide designated “B” in Table 8 can be used as a targeting peptide. If it is also designated G or M it can also be used for antimicrobial activity.

MRSA [6] = assay: Kill or inhibit growth/proliferation; morphology, biofilm and growth disruption (Tables 5, 6); assay type: cell-based, Methicillin-resistant Staphylococcus aureus; parameters: key: A: Peptide aggregates; B: Less hyphal formation; Clumps; Diffuse clumps and small polyps; F: Diffuse growth; H: Thin; I: Growth inhibition; Microcolony formation; Rippled; Small polyps; Thick; W: Halo formation on top, microlonies on bottom
M. luteus = assay: as above; assay type: cell-based, Micrococcus luteus; parameters: key: A: Peptide aggregates; B: Less hyphal formation; Clumps; Diffuse clumps and small polyps; F: Diffuse growth; H: Thin; I: Growth inhibition; Microcolony formation; Rippled; Small polyps; Thick; W: Halo formation on top, microlonies on bottom
S. pneumoniae [7] = assay: as above; assay type: cell-based, Streptococcus pneumoniae; parameters: key: A: Peptide aggregates; B: Less hyphal formation; Clumps; Diffuse clumps and small polyps; F: Diffuse growth; H: Thin; I: Growth inhibition; Microcolony formation; Rippled; Small polyps; Thick; W: Halo formation on top, microlonies on bottom
[8] = system: Mixed planktonic populations of P. aeruginosa, E. coli, S. epidermidis, and S. mutans; assay: Microbial population shift assay; assay type: cell-based; conditions: 10 μM peptide, 24 h
Method: Peptide (10 μM) or mock-treatment (1× PBS) was then added and samples were incubated at 37° C. for 24 h under anaerobic conditions (80% N2, 15% CO2, 5% H2). […] Plates were then incubated 37° C. under aerobic conditions (TH plates were incubated anaerobically) and colonies counted after 24 h to determine survivors. […] Gram stains and direct microscopic observation (from select isolated colonies) were undertaken to confirm species identity (data not shown). The detection limit of the assay was 200 cfu/mL.

S. mutans [9] = assay: Post-antibiotic effect assay (growth retardation after 10 min exposure); assay type: cell-based, Streptococcus mutans; conditions: S. mutans monoculture, peptide 10 min, then fresh medium
Method: The activity and selectivity of MH-STAMPs after a 10 min incubation was determined by growth retardation experiments against targeted and untargeted bacteria in monocultures, as described previously (Id.). Cells from overnight cultures were diluted to ˜5×10^6 cfu/mL in MH (or TH with 1% sucrose for S. mutans), normalized by OD600 0.05-0.1 and seeded to 96-well plates. Cultures were then grown under the appropriate conditions for 2 h (3 h for S. mutans) prior to the addition of peptides for 10 min. Plates were then centrifuged at 3000×g for 5 min, the supernatants discarded, fresh medium returned (MH or TH without sucrose for S. mutans), and incubation resumed. Bacterial growth after treatment was then monitored over time by OD600.

[10] = system: BHK-21 (ATCC CRL-10) fibroblasts; assay: Cytotoxicity, Promega CellTiterGlo assay; assay type: cell-based, hamster; conditions: BHK, at either 5 min or 24 h, with or without light
Method: Streptococcus oralis ATCC 10557, Streptococcus gordonii (Challis), Streptococcus sanguinis (NY101), Streptococcus mitis ATCC 903, Streptococcus salivarius ATCC 13419 and S. mutans wild-type UA140 and JM11 (spectinomycin-resistant) strains were grown in Todd-Hewitt (TH) broth 37° C. in an anaerobic atmosphere of 80% N2, 10% CO2, and 10% H2. BHK-21 (ATCC CRL-10) fibroblasts were propagated in DMEM with 10% FBS, 1 mM sodium pyruvate, 100 units/mL penicillin G, and 100 μg/mL streptomycin at 37° C. with 5% CO2. Cells were detached with 0.25% trypsin and subcultured as recommended by the supplier.
The effect of RB and C16-RB on […] fibroblasts was ascertained by utilizing the Promega CellTiterGlo assay, as described by the manufacturer. Briefly, fibroblasts were grown to confluence, detached, and seeded to ˜5,000 cells per well in a 96-well opaque walled, clear bottom 96-well plate (Nunc International). For long-term dark toxicity, cells were allowed to attach to for 18 h before the culture medium was replaced with medium plus serially-diluted RB or C16-RB (200 μM to 390 nM) or medium alone. After 18-24 h, equal volume Cell Titer Glo reagent was added to each well and mixed. Luciferace activity was then quantified to measure cell viability (Varian Fluorometer in Biolumenescence mode). To measure cytotoxicity after RB or C16-RB light exposure, cells were seeded at ˜10,000 cells per well and allowed to attach for 4 h. Cell growth medium was then replaced with RB or C16-RB containing medium, prior to exposure (a single well at a time) with blue light (400 mW/cm^2) suspended ˜3 cm from the well bottom. After exposure, cultures were disrupted with Cell Titer Glo and luciferase activity quantitated as above.

S. mutans [11] = assay: Anti-S. mutans STAMP activity in vitro, also in formulations; assay type: cell-based, Streptococcus mutans
C. difficile = assay: MIC (broth microdilution); assay type: cell-based, Clostridium difficile
Method: as §1, §2

[12] = system: microorganisms (e.g., bacteria, yeasts, fungi); assay: Targeting peptide binding to target microorganisms (Table 3); conditions: preferably 1x PBS
B. subtilis [13] = assay: MIC (broth microdilution); assay type: cell-based, Bacillus subtilis
Procedure, shortened: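 Broth microdilution per NCCLS: ~1×10^5 cfu/mL organisms in Mueller-Hinton broth with 2-fold serial dilutions of peptide. Incubated 37 °C for 18–24 h; MIC read as lowest inhibitory concentration, 10 replicate experiments.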

A. baumannii = assay: MIC (broth microdilution); assay type: cell-based, Acinetobacter baumannii
Method: as §1, §2

B. subtilis [14] = assay: Kill or inhibit growth/proliferation; morphology, biofilm and growth disruption (Tables 5, 6); assay type: cell-based, Bacillus subtilis; parameters: key: A: Peptide aggregates; B: Less hyphal formation; Clumps; Diffuse clumps and small polyps; F: Diffuse growth; H: Thin; I: Growth inhibition; Microcolony formation; Rippled; Small polyps; Thick; W: Halo formation on top, microlonies on bottom
C. jejuni = assay: as above; assay type: cell-based, Campylobacter jejuni; parameters: key: A: Peptide aggregates; B: Less hyphal formation; Clumps; Diffuse clumps and small polyps; F: Diffuse growth; H: Thin; I: Growth inhibition; Microcolony formation; Rippled; Small polyps; Thick; W: Halo formation on top, microlonies on bottom
MRSA [15] = assay: MIC (broth microdilution); assay type: cell-based, Methicillin-resistant Staphylococcus aureus
Method: as §1, §2

C. albicans = assay: Kill or inhibit growth/proliferation; morphology, biofilm and growth disruption (Tables 5, 6); assay type: cell-based, Candida albicans; parameters: key: A: Peptide aggregates; B: Less hyphal formation; Clumps; Diffuse clumps and small polyps; F: Diffuse growth; H: Thin; I: Growth inhibition; Microcolony formation; Rippled; Small polyps; Thick; W: Halo formation on top, microlonies on bottom
S. mutans [16] = assay type: cell-based, Streptococcus mutans; conditions: S. mutans
Method: as §1, §2

S. epidermidis [17] = assay type: cell-based, Staphylococcus epidermidis; conditions: S. epidermidis
Method: as §1, §2

“TKKIELKRFVDAFVKKSYENYILERELKKLIKAINEELPTK [PF-600]” was tested, and the MIC (S. pneumoniae [1]) was “S. pneumoniae, 50 μM”, the “Organism, effect” value (S. epidermidis [2]) was “S. epidermidis (C)” and the “Organism, effect” value (E. coli [3]) was “E. coli (H)”. The MIC (E. coli [4]) was “E. coli, 50 μM”, the “Organism, effect” value (S. mutans [5]) was “S. mutans (S)” and the Activities (microorganisms) was “G B M”. For the same molecule, the “Organism, effect” value (MRSA [6]) was “MRSA (M)”, the “Organism, effect” value (M. luteus) was “M. luteus (C)” and the “Organism, effect” value (S. pneumoniae [7]) was “S. pneumoniae (R)”.
For `CC[C@H](C)[C@H](NC(=O)[C@H](Cc1ccccc1)NC(=O)CCCCCCCNC(=O)[C@H](CCCCNC(=O)CNC(=O)CNC(=O)CNC(=O)[C@H](C)NC(=O)[C@H](CCC(=O)O)NC(=O)[C@H](CC(N)=O)NC(=O)[C@H](C)NC(=O)[C@H](C)NC(=O)[C@@H](N)CC(=O)O)NC(=O)CNC(=O)CNC(=O)CNC(=O)[C@H](CCCNC(=N)N)NC(=O)[C@H](CC(N)=O)NC(=O)[C@H](CC(C)C)NC(=O)[C@H](Cc1ccccc1)NC(=O)[C@H](CCCNC(=N)N)NC(=O)[C@H](Cc1ccccc1)NC(=O)[C@H](Cc1ccccc1)NC(=O)[C@@H](NC(C)=O)[C@@H](C)O)C(=O)N[C@@H](CCCNC(=N)N)C(=O)N[C@@H](CCCCN)C(=O)N[C@@H](Cc1ccccc1)C(=O)N[C@@H](CC(C)C)C(=O)N[C@@H](CCCCN)C(=O)N[C@@H](CCCCN)C(=O)N[C@@H](Cc1c[nH]c2ccccc12)C(=O)N[C@@H](CC(C)C)C(=O)N[C@@H](CC(C)C)C(N)=O` [M8(BL)-20] (I: Ac-TFFRFLNRGGGK[Aoc]FIRKFLKKWLL-NH2 / II: H-DAANEAGGG; amide I:12-II:C), the “recoverable (surviving) cfu/mL” value ([8]; E. coli in mixed culture) was “not affected or affected to a lesser extent”, the “recoverable (surviving) cfu/mL” value ([8]; P. aeruginosa in mixed culture) was “not affected or affected to a lesser extent” and the “recoverable (surviving) cfu/mL” value ([8]; S. epidermidis in mixed culture) was “not affected or affected to a lesser extent”. For the same molecule, the “recoverable (surviving) cfu/mL” value ([8]; S. mutans in mixed culture) was “greatly reduced compared to input cfu/mL” and the “bacterial growth (OD600) after treatment” value (S. mutans [9]) was “effectively retarded”.
For Melittin B, the IC50 [10] was < 1560 nM.
For “TFFRLFNRSFTQALGKGGGKNLRIIRKGIHIIKKY* (not fully specified (C-terminus); printed as TFFRLFNRSFTQALGKGGGKNLRIIRKGIHIIKKY*) [Peptide C16G2]”, the “PBS strength at activity optimum” value (S. mutans [11]; PBS formulations 0.5× to about 2.5× PBS) was “about 1 × PBS”, the anti-S. mutans activity (S. mutans [11]; phosphate buffered saline (PBS) formulation) was “active” and the anti-S. mutans activity (S. mutans [11]; water-based salt-free buffers and nanoemulsions) was “substantially inactive”.
For FELVDWLETNLGKILKSKSA-NH2 [PF-522], the MIC (C. difficile) was “C. difficile, 25 μM”, the “Target(s)” value ([12]; microorganism(s) the targeting peptide binds, peptide binding conducted in aqueous buffers varied by peptide solubility) was “S. epidermidis; also recorded: E. coli; also recorded: P. aeruginosa; also recorded: S. pneumoniae; also recorded: E. faecalis” and the Activities (microorganisms) was “G B M”. For the same molecule, the “Organism, effect” value (S. pneumoniae [7]) was “S. pneumoniae (H)”.
With MGIIAGIIKFIKGLIEKFTGK [PF-006] the MIC (B. subtilis [13]) was “B. subtilis, 25 μM”, the MIC (A. baumannii) was “A. baumannii, 50 μM” and the “Organism, effect” value (S. epidermidis [2]) was “S. epidermidis (D)”. The “Target(s)” value ([12]; microorganism the targeting peptide binds, binding in aqueous buffers varied by peptide solubility) was “S. epidermidis and M. luteus and E. coli and P. aeruginosa and MRSA and E. faecalis and C. jeikeium and C. jejuni”, the “Organism, effect” value (B. subtilis [14]) was “B. subtilis (I)” and the “Organism, effect” value (C. jejuni) was “C. jejuni (D)”. The Activities (microorganisms) was “G B M”, the “Organism, effect” value (MRSA [6]) was “MRSA (I)” and the “Organism, effect” value (M. luteus) was “M. luteus (A)”. The MIC (MRSA [15]) was “MRSA , 50 μM” and the “Organism, effect” value (S. pneumoniae [7]) was “S. pneumoniae (R)”.
For “FESKILNASKELDKEKKVNTALSFNSHQDFAKAYQNGKI [PF-606]”, the MIC (S. pneumoniae [1]) was “S. pneumoniae, 50 μM”, the “Organism, effect” value (S. epidermidis [2]) was “S. epidermidis (I)” and the “Organism, effect” value (C. albicans) was “C. albicans (B)”. For the same molecule, the MIC (E. coli [4]) was “E. coli, 50 μM”, the “Organism, effect” value (S. mutans [5]) was “S. mutans (I)” and the Activities (microorganisms) was “G M”. For the same molecule, the MIC (S. mutans [16]) was “S. mutans, 50 μM”, the “Organism, effect” value (MRSA [6]) was “MRSA (I)” and the MIC (S. epidermidis [17]) was “S. epidermidis, 50 μM”. For the same molecule, the MIC (MRSA [15]) was “MRSA , 50 μM” and the “Organism, effect” value (S. pneumoniae [7]) was “S. pneumoniae (H)”.
